Measured values as given in ChEMBL document CHEMBL3352446, “Sulforaphane homologues: Enantiodivergent synthesis of both enantiomers, activation of the Nrf2 transcription factor and selective cytotoxic activity” (Eur J Med Chem, 2014).
Calls of active or inactive are those of the source. No cut-off for these calls is given here.

What was measured:
A549 [1] = test: Cytotoxicity against human A549 cells assessed as reduction in cell viability after 48 hrs by MTT assay; type: functional, cell-based; conditions: A549, 48 h
MRC5 [2] = test: Cytotoxicity against human MRC5 cells assessed as reduction in cell viability after 48 hrs by MTT assay; type: cell-based; conditions: MRC5, 48 h
[3] = biological target: T1, Nuclear factor erythroid 2-related factor 2 (Homo sapiens) (UniProt Q16236); test: Activation of NRF2 in human HaCaT cells expressing rat NQO1 assessed as induction of NQO1 expression at 50 nM to 5 uM incubated for 24 hrs by ARE-driven luciferase reporter gene assay; type: cell-based
T1 sequence (whole entry): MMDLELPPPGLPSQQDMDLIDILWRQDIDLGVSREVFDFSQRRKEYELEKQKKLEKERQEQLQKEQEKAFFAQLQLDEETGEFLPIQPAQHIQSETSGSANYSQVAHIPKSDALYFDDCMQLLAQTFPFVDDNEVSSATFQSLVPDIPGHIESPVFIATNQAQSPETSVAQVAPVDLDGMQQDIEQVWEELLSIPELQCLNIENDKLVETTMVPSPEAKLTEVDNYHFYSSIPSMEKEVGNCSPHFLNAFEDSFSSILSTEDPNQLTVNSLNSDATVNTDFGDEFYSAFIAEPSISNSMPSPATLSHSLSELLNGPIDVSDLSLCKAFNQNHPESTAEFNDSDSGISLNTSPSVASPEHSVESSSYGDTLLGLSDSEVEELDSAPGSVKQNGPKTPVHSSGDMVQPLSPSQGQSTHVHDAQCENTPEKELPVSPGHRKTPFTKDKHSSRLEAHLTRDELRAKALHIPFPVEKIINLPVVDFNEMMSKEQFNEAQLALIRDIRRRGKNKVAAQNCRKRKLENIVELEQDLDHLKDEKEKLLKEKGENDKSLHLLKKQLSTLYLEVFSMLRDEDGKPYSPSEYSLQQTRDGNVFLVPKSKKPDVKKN

HaCaT [4] = test: Toxicity in human HaCaT cells expressing rat NQO1 assessed as reduction in cell viability at 50 uM incubated for 24 hrs by MTT assay; type: cell-based
HaCaT [5] = test: Toxicity in human HaCaT cells expressing rat NQO1 assessed as reduction in cell viability at 500 uM incubated for 24 hrs by MTT assay; type: cell-based
MRC5 [6] = test: Cytotoxicity against human MRC5 cells assessed as reduction in cell viability at 10 uM after 48 hrs by inverted microscopy; type: cell-based; conditions: mrc5, 48 h
[7] = Cytotoxicity against human MRC5 cells assessed as cell viability at 10 uM after 48 hrs by inverted microscopy; type: cell-based; conditions: read-out: Activity
A549 [8] = test: Cytotoxicity against human A549 cells assessed as reduction in cell viability at 10 uM after 48 hrs by inverted microscopy; type: functional

Structure (SMILES) | IC50 (A549 [1]) | IC50 (MRC5 [2]) | Activity [3] | Activity (HaCaT [4]) | Activity (HaCaT [5]) | growth inhibition (GI) (MRC5 [6]) | viability at 48 h, 10 µM [7] | growth inhibition (GI) (A549 [8])
CC(O)C(=O)O (configuration not stated) [LACTIC ACID] | 26.6 µM | 23.9 µM |  |  |  |  |  | 
C[S@@+]([O-])CCCCCCN=C=S |  |  | Active |  |  |  |  | 
CC[S@@+]([O-])CCCCN=C=S (racemic) | 19.8 µM | 40.8 µM | Active | Toxic | Toxic |  |  | 
C[S@+]([O-])CCCCCCN=C=S |  |  | Active |  |  |  |  | 
C[S@+]([O-])CCCCCN=C=S | 12 µM | 20.2 µM | Active | Toxic | Toxic |  |  | 
CCCC[S@@+]([O-])CCCCN=C=S | 9.77 µM | 17.4 µM | Active | Toxic | Toxic | Non-toxic | 90% | Active
C[S@@](=O)CCCCN=C=S [SULFORAPHANE] | 19.6 µM | 46.6 µM | Active | Toxic | Toxic |  |  | 
C[S@@+]([O-])CCCCCN=C=S | 9.62 µM | 18.5 µM | Active | Toxic | Toxic |  |  | 
